In patent publication US12226501B2, “Composition with stabilized taste and odor” (Symrise AG, priority 2015, dated 2025):

Tests used:
[1] = ABTS-assay, anti-oxidative capacity (inhibition of radical formation); assay type: biochemical; conditions: for IC50: ABTS radical cation, absorption at 734 nm, mean value from at least 2 independent tests
Procedure: 6-Paradol is a known antioxidant. With the help of the ABTS-assay the anti-oxidative capacity of [6]-paradol and alpha-tocopherol was compared.
2,2′-azino bis-(3-ethylbenzothiazoline 6-sulfonic acid) (ABTS) was transformed by potassium persulfate into the blue-green radical cation ABTS•^+. Through the addition of [6]-paradol and alpha-tocopherol the radical cations were reduced and discoloration was observed, which was determined photometrically by Absorption at 734 nm. The inhibition of the radical formation of the test substance is calculated by the following formula:
[formula] Wherein the abbreviations have the following meanings: • Atest substance: Absorption of the wells with test substance including [6]-paradol and alpha-tocopherol • Acontrol: Absorption of the wells without test substance
From the inhibition of the radical formation [%] in a series of dilutions of tested samples the IC50 was calculated. This is the concentration at which the radical formation is inhibited by 50%.

oxidized DNA bases = conditions: in vitro; cited from earlier work
[2] = Stabilization of avocado oil, absorbance at 232 nm (conjugated dienes); assay type: physicochemical; conditions: compared to avocado oil without additive or to alpha-tocopherol 0.5%
Procedure: To evaluate the odor protecting effect of [6]-paradol on oils, oil samples comprising avocado oil without (A) and with different additives (B to D) were prepared as given in Table 5.
The oil samples were divided respectively into 3 portions, wherein one part was exposed to artificial UV light in a suntest device (Original Hanau-Xenon lamp) for 8 hours 550-600 W/m^2 (300 to 800 nm). The other two portions were stored for 1 month either at room temperature exposed to normal daylight (RTL) or at 50° C. in a heating cabinet (50° C.), respectively. After the treatments, the absorbance at 232 nm was determined as this positive correlates with the state of oxidation by detecting conjugated dienes as specific oxidized compounds.

DMBA-treated hamsters = conditions: oral 30 mg/kg b.w. on alternate days for 14 weeks; cited from earlier work
[3] = Stabilization of argan oil, absorbance at 232 nm (conjugated dienes); assay type: physicochemical; conditions: compared to argan oil without additive or to alpha-tocopherol 0.5%
Procedure: To evaluate the protecting effect of oils from oxidation, oil samples comprising argan oil without (A) and with different additives (B to D) were prepared as given in Table 8.
The oils were divided into 3 portions each. One portion was exposed to artificial UV light in a suntest device (Original Hanau-Xenon lamp) for 8 hours 550-600 W/m^2 (300 to 800 nm). The other two portions were stored for 1 month either at room temperature exposed to normal daylight (RTL) or at 50° C. in a heating cabinet (50° C.), respectively. After the treatments, the absorbance at 232 nm was determined as this correlates with the state of oxidation by detecting conjugated dienes as specific oxidized compounds.

[4] = Color measurement (CIELAB L*a*b*, ΔE) of anti-aging cream containing a retinoid after suntest; assay type: physicochemical
Procedure: Retinoids such as e.g. retinol are potent anti-aging cosmetic agents known to be unstable and prone to discoloration upon light exposure and longer storage at higher temperatures (e.g. >30° C.).
The phase A was heated to 80° C. For phase B, Carbopol Ultrez 21 was sprinkled at the surface of the water for swelling. Afterwards, glycerin was added and phase B was heated up to 80°. Then phase B was added to phase A under strong agitation with an Ultra Turrax. The formula was cooled down and phase C was added at around 40° C. Afterwards, the formula was neutralized with sodium hydroxide to get pH 5-5.5. When the formula was at room temperature, phase E was added under agitation. Final pH was checked to be 5-5.5.
The cream samples were exposed to artificial UV light in a suntest device (Original Hanau-Xenon lamp) for 8 hours 550-600 W/m^2 (300 to 800 nm). Afterwards, they were evaluated for discoloration by measurement of L*a*b* values and calculation of the color difference ΔE as described in example 8.

SMILES | IC50 [1] [µM] | radical scavenging activity better than alpha-tocopherol ([1]; comparison of IC50 values) [fold] | H2O2- and UV-induced formation of oxidized DNA bases (oxidized DNA bases) | protective effect on avocado oil (in words) [2] | status of antioxidants (DMBA-treated hamsters) | protective effect on argan oil (in words) [3] | color protection of retinol (in words) [4]
CCCCCCCC(=O)CCc1ccc(O)c(OC)c1 [[6]-paradol, 1-(4-hydroxy-3-methoxyphenyl)-decan-3-one] | 17.4 | 1.5 | attenuated | lower increase of absorbance at 232 nm | significantly improved the status of antioxidants | lower increase of absorbance at 232 nm | 
Cc1c(C)c2c(c(C)c1O)CC[C@@](C)(CCC[C@H](C)CCC[C@H](C)CCCC(C)C)O2 [alpha-tocopherol, reference compound] | 26.8 |  |  |  |  |  | unsuitable for protecting retinol from discoloration
